From US20010032339A1, “Chaperone suppression of ataxin-1 aggregation and altered subcellular proteasome localization imply protein misfolding in SCA1” (priority 1998, published 2001)

Legend:
Assay type in all cases: cell-based, human
[1] = test system: ataxin-1 [92Q] in HeLa cells; test: Immunoblot of steady-state levels of ataxin-1 in detergent soluble and insoluble fractions; settings: HeLa cells expressing ataxin-1 [92Q], versus DMSO control
Description: The effect of β-lactone on the steady-state levels of ataxin-1 was assessed by immunoblot analysis (FIGS. 8A through 8D). HeLa cells expressing mutant ataxin-1 [92Q] were treated with either different concentrations of β-lactone or DMSO (dimethyl sulfoxide) control. Cells lysates were separated into detergent soluble and insoluble fractions and then immunoblotted with ataxin-1 antibody. […] Increasing the protein concentration per lane and extending the exposure time, a high molecular weight smear punctated by discrete bands is evident. […] Additionally, the higher molecular weight smear was never seen in the detergent soluble fraction.

[2] = test system: GFP-ataxin-1 [82Q] nuclear aggregates in HeLa cells; test: Effect of proteasome inhibitors on aggregation of GFP-ataxin-1 [82Q] in transfected HeLa cells; settings: HeLa cells transfected with GFP-ataxin-1 [82Q]
Excerpt: Full length mutant ataxin-1 [82Q] readily aggregates in subnuclear structures when overexpressed in tissue culture cells and these aggregates alter the staining pattern of the 20S proteasome. […] The effect of proteasome inhibitors on the aggregation of GFP-ataxin-1 [82Q] in transfected HeLa cells was examined. The protease inhibitor clasto-Lactacystin β-lactone specifically prevents protein breakdown by the proteasome, without inhibiting lysosomal degradation. […] In contrast to the 71% of mock treated cells which had nuclear aggregates, 97% of the proteasome inhibitor treated cells were aggregate positive (FIGS. 7A through 7D). […] Therefore, proteasome inhibitor treatment led to an increase in both frequency and size of nuclear aggregates. This enhancement is most likely due to the increased nuclear concentration of misfolded proteins which are not being properly degraded.

[3] = test system: ataxin-1 [92Q] nuclear aggregates in HeLa cells; test: Ataxin-1 aggregate formation in HeLa cells cotransfected with ataxin-1 [92Q] and HDJ-2/HSDJ constructs
Excerpt: Full-length human HDJ-2/HSDJ and HDJ-2/HSDJ mutants Δ250 (deletion of aa 9-46) and Δ450 (deletion of aa9-107)^32 were subcloned in frame into the pFLAG-CMV-2vector (Kodak). The primers HDJ2-FOR (5′-[…]-3′) and HDJ2-REV (5′-[…]-3′) were used to PCR amplify the 5′ end of HDJ-2/HSDJ containing an inframe Not I site. The PCR product was cut with Notl and EcoRl and subcloned into pFLAG-CMV-2. This construct was digested with EcoRl and Xbal to insert the 3′ HDJ-2/HSDJ EcoRl/Xbal sequence. The constructs were confirmed by DNA sequence analysis.
Transient expression of ataxin-1 and HDJ-2/HSDJ in COS7 and HeLa cells was accomplished by transfection with Lipofectamine™ Reagent (Life technologies, Inc.) in 35 mm tissue culture plates containing sterile coverslips. Forty-eight hours after transfection, cells were fixed at 4° C. for 30 min in 4% formaldehyde in PEM (80 mM K-PIPES, pH 6.8, 5 mM EGTA pH 7.0, 2 mM MgCl2), quenched in 1 mg/ml NaBH4 in PEM, and permeabilized for 30 min in 0.5% Triton X-100 in PEM. The coverslips were blocked for 1 hour at room temperature (RT) in 5% non-fat dry milk (Bio-Rad) in 50 mM Tris-HCl pH 7.5, 150 mM NaCl, 0.05% Tween20 (TBS-T), then incubated for 60 min at RT with rabbit polyclonal antibodies (1:1000) recognizing ataxin-1 (11750VII)^44. […] Hsp70 was detected with mouse monoclonal anti-Hsp70 (1:500) (StressGen). Endogenous HDJ-2/HSDJ was detected with mouse monoclonal anti-HDJ-2/DNAJ (1:200) (Neomarkers). The 20S proteasome was visualized with rabbit polyclonal anti-20S proteasome^43 (1:500) and ataxin-1 colocalization was detected using mouse monoclonal anti-Xpress (1:1000) recognizing the Xpress epitope in pcDNA 3.1 (Invitrogen). […]
Duplicate slides were graded blindly in two independent trials. […] Frequency of aggregate formation was computed for two independent experiments and expressed as the mean±s.e.m. […]
The ability of HDJ-2/HSDJ to function as a molecular chaperone and moderate ataxin-1 aggregation in HeLa cells was tested. […] HDJ-2/HSDJ was overexpressed by transfection in HeLa cells and the cells analyzed for the staining pattern of ataxin-1. […]

CC(C)[C@H](O)[C@@]12NC(=O)[C@H](C)[C@@H]1OC2=O [β-lactone, clasto-Lactacystin β-lactone]
steady-state level of detergent soluble form of ataxin-1 [1]: unchanged | steady-state level of detergent-insoluble form of ataxin-1 [1]: marked accumulation | distribution of cells containing large aggregates compared to controls [2]: dramatically increased | percentage of cells aggregate positive ([2]; mock treated 71%): 97%

HDJ-2/HSDJ: full-length human DnaJ (Hsp40) homolog molecular chaperone, overexpressed by transfection (pFLAG-CMV-2)
change in frequency of ataxin-1 aggregation versus vector control ([3]; HeLa cells cotransfected with ataxin-1, ANOVA F=24.5, p=0.0002): significant decrease | distribution of ataxin-1 staining pattern (diffuse/micropunctate versus large aggregates) ([3]; HeLa cells cotransfected with ataxin-1, ANOVA F=36.4, p<0.001): more cells have diffuse/micropunctate nuclear staining pattern, than large nuclear aggregates | percentage of cells with nuclear aggregates (aggregate-positive) ([3]; HeLa cells cotransfected with ataxin-1 [92Q], vector control approximately 70%): less than 40%
